# Reference: paper PMC5451472, “Novel Locally Active Estrogens Accelerate Cutaneous Wound Healing-Part 2” (Scientific Reports, 2017)
# Legend:
# MITO-Luc mice = assay: Granulation tissue histoscore of round full-thickness wound at day 10; format: in vivo, mouse; conditions: 200 µg/kg s.c., day 10, round wound, scale 1-3 (vehicle 0.3)
# Protocol: The measure of photon emission from the wound area was done for several days after the wounding. 3 days after treatment the bioluminescent signal is highest (Fig. 10 Panel a).
# (§1) Ovariectomy was carried out as previously described. Wound healing was done after shaving by VEET depilatory cream a day before the treatment. The 1 cm full-thickness incisional wound was made through the skin and panniculus carnosus muscle of ovariectomized MITO-luc using a surgical scalpel (blade n°10, carbon steel, Swann-Morton Ltd). Round full-thickness wounds were done by cutting out a section of full-thickness skin (around 9 mm in diameter) using fine scissors on the dorsal skin of the isoflurane-anesthetized animal. For in vivo treatment the compounds were administered onto the subcutaneous area surrounding the wound by multiple subcutaneous injection, immediately after the generation of the wound.
# At the time of euthanasia, the wounds with surrounding healthy tissue were excised, distended on a strip of hard paper and fixed in 10% buffered formalin (pH = 6). […] For histopathological examination 4 µm sections were routinely stained with Hematoxylin-Eosin (HE) and evaluated under a light microscope. The degree of re-epithelialization, the type and amount of granulation tissue and inflammation, which are the main features of wound healing, were scored separately. […]
# [1] = test system: MITO-Luc mice (reporter of mitosis); assay: Proliferation in the wound area, in vivo BLI of MITO-Luc mice; parameters: species or system mouse
# From the text: Wound healing is a dynamic process consisting of four continuous, overlapping, and precisely programmed phases: hemostasis, inflammation, proliferation and tissue growth (proliferation) and remodeling (maturation). The healing effect of estrogens may be exerted at several levels, certainly the ability of the hormone to accelerate macrophage polarization towards the M2-reparative polarization stage plays a relevant role, however estrogens may also facilitate local cell proliferation and the formation of the granulation tissue, epithelialization, and wound contraction.
# The experiments were done with the 1e compound as completely deprived of any activity on the uterus (Fig. 6). […] Photon emission was measured in the wound area at the following time: 0, 24, 48 and 72 hours post-treatment.
# ERE-Luc and MITO-Luc mice were ovariectomized at two months of age; the experiment was done 2 weeks after surgery to allow the animals to recover and to decrease the levels of circulating estrogens. The animals were fed ad libitum with a special estrogen free diet (AIN 93 M, Mucedola) (Ciana et al. Endocrinology 2005) and housed in individually ventilated plastic cages within a temperature range of 22–25 °C, relative humidity of 50% ± 10% and under an automatic cycle of 12 h light/dark (lights on at 07:00 am). All animal experimentation was carried out in accordance with the ARRIVE and European Guidelines for Animal Care. All animal experiments were approved by the Italian Ministry of Research and University and controlled by a Departmental panel of experts. For the correct dosage of the compounds, the body weight of the animals (on empty stomach, fasted for at least 12–14 hours) was determined immediately before the treatment.
# as §1, with “For in vivo treatment the compounds were administered onto the subcutaneous area surrounding the wound by multiple subcutaneous injection, immediately after the generation of the wound.” left out
# For the semi-quantitative analysis of in vivo photon emission, animals were injected i.p. with 80 mg/kg of luciferin (Beetle Luciferin Potassium Salt; Promega, Madison, WI, USA) 15 min prior the imaging session. […] Photon emission in selected body areas was measured using the Living Image Software (Caliper, PerkinElmer company). The analysis was done in ventral view: whole body, thymus, hepatic area, abdomen, limbs, vagina and in dorsal view in wound area and expressed as photon/second/cm2/steradiant (p/s/cm2/sr).
# ERs = target: T1, ERs (Homo sapiens, UniProt P03372); assay: ER transactivation assay in ERE-Luc B17 cells (luciferase reporter); format: cell-based
# T1 construct: endogenous in cells; host or cells: MCF-7, clone ERE-Luc B17 (only the luciferase reporter is transfected)
# T1 sequence (P03372 1-595): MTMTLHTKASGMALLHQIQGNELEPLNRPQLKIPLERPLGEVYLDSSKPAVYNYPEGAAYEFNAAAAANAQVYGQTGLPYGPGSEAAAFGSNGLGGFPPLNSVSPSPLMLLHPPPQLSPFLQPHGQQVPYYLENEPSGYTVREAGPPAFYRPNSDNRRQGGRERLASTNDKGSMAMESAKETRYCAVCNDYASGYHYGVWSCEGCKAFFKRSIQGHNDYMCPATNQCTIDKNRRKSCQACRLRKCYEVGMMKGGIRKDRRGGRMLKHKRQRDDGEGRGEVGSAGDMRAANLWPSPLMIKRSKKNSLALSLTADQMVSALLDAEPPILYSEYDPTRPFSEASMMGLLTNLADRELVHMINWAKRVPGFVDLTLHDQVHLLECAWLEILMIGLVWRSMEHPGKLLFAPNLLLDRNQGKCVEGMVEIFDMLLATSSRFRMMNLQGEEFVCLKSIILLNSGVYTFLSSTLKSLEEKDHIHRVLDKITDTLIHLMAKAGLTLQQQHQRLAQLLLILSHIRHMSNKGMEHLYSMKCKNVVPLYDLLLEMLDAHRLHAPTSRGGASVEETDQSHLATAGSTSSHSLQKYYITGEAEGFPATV
# Protocol: The ability of the novel compounds to transcriptionally activate ERs was tested in ERE-Luc B 17 cells, a clone of the breast cancer cell line MCF-7 stably transfected with a reporter constituted by the luciferase gene driven by an estrogen-regulated synthetic promoter previously generated and tested in our laboratories.
# Cells were split twice a week by seeding 2 × 10^6 cells in 100 mm diameter Petri (Corning) dishes.
# After 24 h cells were rinsed once with PBS before preparing the protein extract for the determination of luciferase content. Each experiment was carried out in duplicate.
# Luciferase enzymatic activity was measured in cells or selected tissue homogenates by a luminometer (Glomax™96 microplate luminometer; Promega) using Promega standard luciferin (Beetle Luciferin Potassium Salt) and expressed as Relative Light Units over 10 sec/μg protein (RLU/μg protein). Proteins concentrations were measured by Bradford.
# Analysis of transactivation data and calculation of EC50 values were performed by means of sigmoidal dose-response (variable slope) using PRISM5 software (GraphPad Software Inc.).
compound,measurement,setting,value
"CCCCOC(=O)CCC#C[C@]1(O)CC[C@H]2[C@@H]3CCc4cc(O)ccc4[C@H]3CC[C@@]21C [1e, 3,17β-Hydroxy-17α-(4′carbobutoxy-1′-butyn-1′-yl)estra-1,3,5-(10)-triene]","Score of granulation tissue (fibrosis), histoscore mean",MITO-Luc mice,1.5
same,increase of photon emission from wound,"[1]; 200 µg/kg s.c. around wound, 72 h versus time 0, ovx MITO-Luc",87%
same,photon emission from the wound area,"[1]; 200 µg/kg s.c., 48 hours after administration",significantly increased
same,EC50,"ERs; ERE-Luc B17 cells (MCF-7 clone), 24 h, luciferase activity, sigmoidal dose-response, read-out: EC50 (transactivation potency)",1.3 nM
same,fold induction at 10 µM,"ERs; ERE-Luc B17 cells, 10^-5 M of compound respect to vehicle",2.6
